US11396497B2, “Proteasome inhibitors” (New Mexico Tech University Research Park Corporation, priority 2018, dated 2022)
Like-named read-outs stand apart in the source and are kept apart here.

Assays:
[1] = molecular target: T1, chymotrypsin-like activity of the 26S proteasome (Homo sapiens, UniProt P28074); test: Proteasome assay, chymotrypsin-like (ChT-L) activity, Suc-LLVY-AMC, Jurkat cell lysate; assay type: biochemical; conditions: ± S.D., read-out: Proteasome Inhibition ChT-like IC50
T1 construct: endogenous in cells; host or cells: Jurkat (ATCC TIB-152, E6-1 clone) cell lysate
T1 sequence (P28074 60-263): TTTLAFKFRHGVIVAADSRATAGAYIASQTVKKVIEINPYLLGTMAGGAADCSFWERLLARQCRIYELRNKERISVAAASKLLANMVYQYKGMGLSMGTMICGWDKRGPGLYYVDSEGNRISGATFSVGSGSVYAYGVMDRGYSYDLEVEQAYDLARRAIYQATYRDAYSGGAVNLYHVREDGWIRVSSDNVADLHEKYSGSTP
Method: (§1) The lysate was stored at −80° C. until the sample was used for the proteasome assay.
(§2) The compounds were diluted with lysis buffer; 10 μL of the compound-containing solution was added to the test wells at ten times the final concentration. […] The results are reported as the average of at least 3 technical replicates of IC50 values for proteasome inhibition.

[2] = molecular target: T2, yeast proteasome yβ1 subunit (Saccharomyces cerevisiae, UniProt P25043+P38624); test: Subunit selectivity, purified yeast proteasome yβ1; assay type: biochemical
T2 construct: measured using 8 μg/mL of purified yCP or iCP
Method: as §2
(§3) Values and standard deviations were calculated from an assay performed in biological triplicate.

[3] = molecular target: T3, yeast proteasome yβ2 subunit (Saccharomyces cerevisiae, UniProt P25043+P25451); test: Subunit selectivity, purified yeast proteasome yβ2; assay type: biochemical
T3 construct: measured using 8 μg/mL of purified yCP or iCP
Method: as §2, §3

[4] = molecular target: T4, yeast proteasome yβ5 subunit (Saccharomyces cerevisiae, UniProt P23724+P30656); test: Subunit selectivity, purified yeast proteasome yβ5; assay type: biochemical
T4 construct: measured using 8 μg/mL of purified yCP or iCP
Method: as §2, §3

MCF7 cells = test: MTT assay cytotoxicity MCF7; conditions: Homo sapiens, MCF7, 48 h, read-out: Cytotoxicity MCF7 IC50
Method: The cells were incubated at 37° C. in a humidified atmosphere with 5% CO2.
100 μL of cells were added to each well of a 96 well microtiter plate at a concentration of 4×10^4 cells/mL and incubated overnight to allow proper adhesion. (RPMI 8226 cells were plated at 4×10^5 cells/mL). The cells were treated with the panel of test compounds at a series of concentrations, along with vehicle control DMSO and untreated cells as controls. After 48 h incubation, 20 μL of MTT reagent (3-(4,5-dimethylthiazol-2-yl)-2,5-diphenyltetrazolium bromide) in PBS (5 mg/mL) was added to each well of the plates. The plate was incubated for 2 h at 37° C. For adherent cell lines, the media was removed from each well of the plate and the resulting formazan crystals dissolved in 100 μL of DMSO. For RPMI 8226 cells, 200 ul of DMF/SDS mix (50% DMF. 10% w/v SDS pH<4) was used to solubilize the formazan crystals. Optical density (OD) at 490 nm was measured using a microplate reader. Cells treated with 1 μM phenyl arsine oxide (PAO) served as a positive cell-killing control. Technical replicates of these assays were performed in biological quadruplicate, and the three best values were used for analysis in order to eliminate outliers. Data presented are the average IC50 value calculated from at least 3 technical replicates with the corresponding standard deviation.

RPMI 8226 cells = test: MTT assay cytotoxicity RPMI 8226; conditions: Homo sapiens, RPMI-8226, 48 h, read-out: Cytotoxicity RPMI 8226 IC50
MDA-MB-231 cells = test: MTT assay cytotoxicity MDA-MB-231; conditions: Homo sapiens, MDA-MB-231, 48 h, read-out: Cytotoxicity MDA-MB-231 IC50
[5] = molecular target: T5, trypsin-like activity of the 26S proteasome (Homo sapiens, UniProt Q99436); test: Proteasome assay, trypsin-like (T-L) activity, SUC-RLR-AMC, Jurkat cell lysate; assay type: biochemical
T5 construct: endogenous in cells; host or cells: Jurkat (ATCC TIB-152, E6-1 clone) cell lysate
T5 sequence (Q99436 44-277): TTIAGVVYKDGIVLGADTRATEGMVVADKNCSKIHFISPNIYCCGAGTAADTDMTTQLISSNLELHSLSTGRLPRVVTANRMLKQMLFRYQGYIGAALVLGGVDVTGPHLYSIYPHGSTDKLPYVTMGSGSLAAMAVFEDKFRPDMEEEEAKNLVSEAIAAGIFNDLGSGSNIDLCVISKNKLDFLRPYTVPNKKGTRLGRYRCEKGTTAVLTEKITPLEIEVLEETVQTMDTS
Method: as §1, §2

[6] = system: cancer cells (MCF7, MDA-MB-231, RPMI 8226); test: MTT cytotoxicity, cell line not given
[7] = molecular target: T6, ChT-L activity of 26S proteasomes in intact MCF-7 cells (Homo sapiens, UniProt P28074); test: Cell infiltration of PIs: proteasome inhibition in intact MCF7 cells; assay type: cell-based; conditions: intact versus lysed MCF-7 cells, 1 h
T6 construct: endogenous in cells; host or cells: MCF7 cells (treated intact, then lysed)
T6 sequence (P28074 60-263): T1 sequence (P28074 60-263)
Method: 100 μL MCF7 cells at a concentration of 500,000 cells/mL were added to a 96 well microtiter plate and incubated overnight at 37° C. and 5% CO2 to allow cells to adhere at 100% confluency. The cells were treated and then incubated for at 37° C. and 5% CO2 for 1 hour as a standard time to allow for drug infiltration. […] The plate was rocked on ice for 1 hr and then 90 μL of cell lysate was transferred to a black 96 well microtiter plate. 10 μL of lysis buffer was added to the top of all wells containing treated cells and one set of control wells. 10 μL of 1 mM of compound 8 was added to the second set of control wells as a positive control for proteasome inhibition. The plate was then incubated at 37° C. for 15 minutes to allow for control drug binding. Chymotrypsin-like activity was then measured by adding 10 μL of 100 μM Suc-LLVY-AMC in lysis buffer to each well and then incubating for 1 h at 37° C. […] Standard deviation for cell infiltration was calculated by propagating the error from the two IC50 values.
The difference between proteasome inhibition within intact versus lysed cells was evaluated as a representative measure of PIs ability to infiltrate cells and access intracellular proteasomes. […] Assays were performed in biological triplicate, and the data points are reported with the corresponding standard deviations. […]

[8] = molecular target: T7, immunoproteasome iβ5 subunit (Homo sapiens, UniProt P20618+P28062); test: Subunit selectivity, purified immunoproteasome iβ5; assay type: biochemical; conditions: 8 μg/mL purified iCP; ± SD; read-out: iβ5 IC50
T7 construct: purchased Enzo Life Sciences
Method: as §2, §3

`CC[C@H](C)[C@@H]1C(=O)O[C@H]1C(=O)N[C@H](C(=O)N[C@H](C(=O)NCc1ccccc1)C(C)C)C(C)C` [Compound 11e, (2R,3S)—N—((S)-1-(((S)-1-(benzylamino)-3-methyl-1-oxobutan-2-yl)amino)-3-methyl-1-oxobutan-2-yl)-3-((S)-sec-butyl)-4-oxooxetane-2-carboxamide] was tested, and the IC50 ([1]; Table 4, P4 analogues) was 4.5 ± 2.9 nM, the IC50 [2] was 1380 ± 106 nM and the IC50 [3] was 2920 ± 210 nM. For the same compound, the IC50 [4] was 5.4 ± 0.5 nM, the IC50 (MCF7 cells) was 814 ± 121 nM and the IC50 (RPMI 8226 cells) was 387 ± 177 nM. For the same compound, the IC50 (MDA-MB-231 cells) was 742 ± 212 nM.

With `CC[C@H](C)[C@@H]1C(=O)O[C@H]1C(=O)NCC(=O)N[C@H](C(=O)OCc1ccccc1)C(C)C` [Compound 10a, Benzyl ((2R,3S)-3-((S)-sec-butyl)-4-oxooxetane-2-carbonyl)glycyl-L-valinate] the IC50 ([1]; Table 3, P2/P3 analogues) was 3.8 ± 1.4 nM, the IC50 [5] was 256 ± 72 nM and the IC50 (MCF7 cells) was about 4000 nM. For the same compound, the IC50 (RPMI 8226 cells) was 840 ± 429 nM, the IC50 (MDA-MB-231 cells) was 952 ± 262 nM and the “concentration up to which complete cytotoxicity was not achieved” value [6] was over 100 µM.

In the case of `CC(C)[C@H](NC(=O)[C@@H]1OC(=O)[C@H]1C1CC1)C(=O)N[C@H](C(=O)OCc1ccccc1)C(C)C` [Compound 9a, Benzyl ((2R,3S)-3-cyclopropyl-4-oxooxetane-2-carbonyl)-L-valyl-L-valinate], the IC50 ([1]; Table 2, P1 analogues) is reported as 12.2 ± 5.6 nM, the IC50 ([5]; Table 2, P1 analogues, ± S.D., read-out: Proteasome Inhibition T-L-like IC50) is reported as 2480 ± 433 nM and the “cellular infiltration / ability to inhibit intracellular proteasomes (in words)” value [7] is reported as “lowest performance”. The IC50 (MCF7 cells) was over 100000 nM, the IC50 (RPMI 8226 cells) was 72000 ± 13800 nM and the IC50 (MDA-MB-231 cells) was over 100000 nM.

In the case of `CC(C)C1C(=O)OC1C(=O)N[C@H](C(=O)N[C@H](C(=O)O)C(C)C)C(C)C` (stereo partly shown) [CysB, Cystargolide B, reference compound], the IC50 ([2]; 8 μg/mL purified yCP, ± SD, read-out: yβ1 IC50) is reported as 10200 ± 780 nM, the IC50 ([3]; 8 μg/mL purified yCP, ± SD, read-out: yβ2 IC50) is reported as 61600 ± 4840 nM and the IC50 [8] is reported as 681 ± 177 nM.
